Laboratory results: patent US20240217973A1, “IMIDAZOPYRIDINE COMPOUNDS AND USE THEREOF” (MEDSHINE DISCOVERY INC., priority 2021, published 2024)

molecular target: BTK kinase (Homo sapiens (Human), UniProt Q06187); experiment: BTK kinase experiment (ADP-Glo); type: biochemical; settings: 2 μM ATP, PolyE4Y1 substrate, 30 minutes pre-incubation
Description: BTK kinase, PolyE4Y1 substrate and Kinase assay buffer III were purchased from Signalchem; ADP-Glo Kinase Assay was purchased from Promega; Nivo multi-label analyzer (PerkinElmer).
1× buffer preparation (which was prepared and used immediately): Kinase assay buffer III was diluted with ddH2O to 1× assay buffer for later use.
The compound to be tested was diluted with 100% DMSO to 10 μM as the first concentration, and followed by a 5-fold dilution to the 8th concentration using a multi-channel pipette, i.e., it was diluted from 10 μM to 0.128 nM.
Each gradient of the compound to be tested was diluted into a working solution with 5% DMSO using 1× buffer, 1 μL/well was added to the corresponding well, and a double-replicate well experiment was set up. 2 μL of BTK enzyme (4 ng) was add to each well and incubating at 25° C. for 30 minutes. After the incubation was completed, 2 μL of a mixture of substrate and ATP (2 μM ATP, 0.2 μg/μL PolyE4Y1) was added to each well and incubating at 25° C. for 120 minutes. At this point, the final concentration gradient of the compound was diluted from 100 nM to 0.00128 nM. After the reaction was completed, 5 μL of ADP-Glo reagent was added to each well, and the reaction continued at 25° C. for 40 minutes. After the reaction was completed, 10 μL of kinase detection reagent was added to each well. After reacting at 25° C. for 30 minutes, PerkinElmer Nivo multi-label analyzer was used to read the chemiluminescence, and the integration time was 0.5 seconds.
Raw data was converted into inhibition rate using the equation: (Sample−Min)/(Max−Min)*100%. The IC50 value could then be derived by performing a curve fit using four-parameter (which was obtained using the “log(inhibitor) vs. response-Variable slope” mode in GraphPad Prism).

Chain of BTK kinase (Q06187 whole entry): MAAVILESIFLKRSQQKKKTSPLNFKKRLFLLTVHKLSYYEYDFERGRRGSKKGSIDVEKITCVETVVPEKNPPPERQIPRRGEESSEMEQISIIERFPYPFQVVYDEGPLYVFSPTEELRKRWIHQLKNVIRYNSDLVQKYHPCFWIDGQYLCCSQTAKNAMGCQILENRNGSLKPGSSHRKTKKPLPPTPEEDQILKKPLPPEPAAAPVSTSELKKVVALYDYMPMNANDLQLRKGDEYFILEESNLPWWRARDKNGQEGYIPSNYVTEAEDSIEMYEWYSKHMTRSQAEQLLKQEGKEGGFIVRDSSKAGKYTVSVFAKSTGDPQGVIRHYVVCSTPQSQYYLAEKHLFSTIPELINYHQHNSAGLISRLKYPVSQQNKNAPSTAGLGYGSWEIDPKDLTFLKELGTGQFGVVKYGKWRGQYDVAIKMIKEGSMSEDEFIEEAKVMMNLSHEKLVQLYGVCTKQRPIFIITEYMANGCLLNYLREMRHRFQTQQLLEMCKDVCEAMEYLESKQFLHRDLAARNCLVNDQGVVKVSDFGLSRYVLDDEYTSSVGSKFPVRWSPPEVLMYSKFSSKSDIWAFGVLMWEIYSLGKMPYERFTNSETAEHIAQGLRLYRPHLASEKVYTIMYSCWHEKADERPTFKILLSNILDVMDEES

IC50 [nM]	Compound
0.71	C=CC(=O)N1CCC[C@@H](n2c(=O)n(-c3ccc(CNC(=O)c4cc(F)ccc4OC)cc3)c3c(N)nccc32)C1 [Compound 001]
2.46	COc1cccc(Oc2ccc(-n3c(=O)n([C@@H]4CCCN(C(=O)/C=C/CF)C4)c4ccnc(N)c43)cc2)c1F [Compound 004]
2.85	Nc1nccc2c1n(-c1ccc(Oc3c(F)cccc3F)cc1)c(=O)n2[C@@H]1CCCN(C(=O)/C=C/CF)C1 [Compound 005]
13.6	Nc1nccc2c1n(-c1ccc(Oc3ccc(Br)cn3)cc1)c(=O)n2[C@@H]1CCCN(C(=O)/C=C/CF)C1 [Compound 006]
16	Nc1nccc2c1n(-c1ccc(Oc3ccc(Cl)cn3)cc1)c(=O)n2[C@@H]1CCCN(C(=O)/C=C/CF)C1 [Compound 007]
36.5	Nc1nccc2c1n(-c1ccc(Oc3ccc(F)cn3)cc1)c(=O)n2[C@@H]1CCCN(C(=O)/C=C/CF)C1 [Compound 008]
2.8	Nc1nccc2c1n(-c1ccc(Oc3ccccc3)c(F)c1)c(=O)n2[C@@H]1CCCN(C(=O)/C=C/CF)C1 [Compound 009]
3.04	Cc1cc(-n2c(=O)n([C@@H]3CCCN(C(=O)/C=C/CF)C3)c3ccnc(N)c32)ccc1Oc1ccccc1 [Compound 010]
1.57	Nc1nccc2c1n(-c1ccc(Oc3ccccc3)c(Cl)c1)c(=O)n2[C@@H]1CCCN(C(=O)/C=C/CF)C1 [Compound 011]
